Assay results reported in patent US4760078A, “Immunomodulator 1,2-dithiol-3-thione derivative composition, use method and process of producing the same” (priority 1986, dated 1988).
Where two headings read alike, the source gives them in different places.

Key:
mouse spleen cells [1] = assay: Action against blast formation reaction of mouse spleen cells (ConA-induced DNA synthesis, 3H-thymidine intake); assay type: cell-based, BALB/C mouse; conditions: Experiment 1, 10^-4 M, ConA 2 μg/ml, read-out: Activity (relative activity, 3H-thymidine intake, control = 100)
Method: Action Against Blast Formation Reaction of Mouse Spleen Cells The action of the compound of the present invention against the DNA synthesis of mouse spleen cells, which synthesis is induced by Concanavalin A (hereinafter referred to as ConA for short) was examined. 1×10^5 spleen cells of BALB/C mouse (female, 10 weeks old) were incubated with 2 μg/ml of ConA and 10^-6, 10^-5, or 10^-4 M of the compound of the present invention in RPMI 1640 medium containing 10% […] at 37° C. in an atmosphere containing 5% CO2 for 48 hours. Subsequently, ^3 H-thymidine was added to the culture and then the culture was incubated for another 18 hours. The incubated cells were collected with a harvester and the intake of ^3 H-thymidine by the cells was determined using a scintillation counter. The activity in the table is relative activity when the activity of the control is 100.

mice = assay: Acute toxicity (oral); assay type: in vivo, ddY mice; conditions: 300 mg/kg, 6 mice per group
From the text: Oral toxicity of the compound of the present invention was examined using mice.
The compound of the present invention was suspended in 0.5% solution of methyl cellulose and the suspension was orally administered to ddY mice (male, 7 weeks old, 6 mice per group). The conditions of the mice were observed and the number of deaths in 14 days from administration was checked.

mouse spleen cells [2] = assay: Action against blast formation reaction of mouse spleen cells (ConA-induced DNA synthesis, 3H-thymidine intake); assay type: cell-based, BALB/C mouse; conditions: ConA 2 μg/ml, read-out: Activity (relative activity, 3H-thymidine intake, control = 100)
immune system = conditions: published by the inventors, Pharmaceutical Society of Japan 1984; cited from earlier work
[3] = test system: spleen cells producing anti-SRBC antibody; assay: Antibody production-promoting action (PFC number against SRBC, Jerne's method); assay type: in vivo, ICR mice; conditions: oral, twice (day of immunization and next day), 3 days after immunization
Method: Antibody Production-Promoting Action
The action of the compound of the present invention with respect to the antibody production of mouse against sheep red blood cells (SRBC) was examined.
To tail veins of ICR mice (female, 7 weeks old, 4 mice in each group), 5×10^7 SRBC were injected to immunize the mice. The compound of the present invention suspended in 0.5% methyl cellulose solution was orally administered twice to the mice on the day of immunization and on the next day. Three days after immunization, the number of spleen cells producing anti-SRBC antibody (PFC number) was checked by Jerne's method (Science Vol. 140, p. 405 (1963)).
In Table 2, the activity is the relative PFC number when the PFC number of the control is 100.

rat EAE = assay: Action against experimental allergic encephalomyelitis (EAE) of rats; assay type: in vivo, Lewis rat; conditions: subcutaneous, 8 times; for Survival Rate: 50 days after inoculation, control 6/8; for Crisis Day (Mean): control 9.1 ± 0.6; for Clin. Score (Mean): score 0 to 5, control 1.0 ± 0.4, * p < 0.01
[4] = cited from earlier work

## O=C(O)CCCCC1CCSS1 (racemic) [Lipoic Acid, DL-thioctic acid, reference compound]
Mouse spleen cells [1]
  activity at 100 µM: 234%
mice
  number of deaths in 14 days from administration: one mouse in 6 mice died
Mouse spleen cells [2]; Experiment 1, 10^-5 M
  activity at 10 µM: 146%
Mouse spleen cells [2]; Experiment 1, 10^-6 M
  activity at 1 µM: 142%
Mouse spleen cells [2]; Experiment 2, 10^-5 M
  activity at 10 µM: 159%
Mouse spleen cells [2]; Experiment 2, 10^-6 M
  activity at 1 µM: 95%
Immune system
  immunomodulating effect: excellent immunomodulating effect

## Cc1ccc(C=CC=Cc2cc(=S)ss2)cc1 [Compound 5, 5-{4-(p-toluyl)-1,3-butadienyl}-1,2-dithiol-3-thione]
Mouse spleen cells [2]; Experiment 2, 10^-5 M
  activity at 10 µM: 228%
Mouse spleen cells [2]; Experiment 2, 10^-6 M
  activity at 1 µM: 130%

## S=c1cc(C=CC=Cc2ccccc2)ss1 [Compound 1, 5-(4-phenyl-1,3-butadienyl)-1,2-dithiol-3-thione]
Mouse spleen cells [1]
  activity at 100 µM: 196%
[3]; 0.4 mg/kg
  Activity (relative PFC number, control = 100): 258
[3]; 2.0 mg/kg
  Activity (relative PFC number, control = 100): 149
Rat EAE; 0.3 mg/kg/d
  Survival Rate: 8/8
  Crisis Day (Mean): 10.5 ± 0.9
  Clin. Score (Mean): 0.3 ± 0.1
Rat EAE; 3 mg/kg/d
  Survival Rate: 8/8
  Crisis Day (Mean): 10.3 ± 0.7
  Clin. Score (Mean): 0.2 ± 0.1
Mouse spleen cells [2]; Experiment 1, 10^-5 M
  activity at 10 µM: 281%
Mouse spleen cells [2]; Experiment 1, 10^-6 M
  activity at 1 µM: 250%

## COc1ccc(C=CC=Cc2cc(=S)ss2)cc1 [Compound 3, 5-{4-(4-methoxyphenyl)-1,3-butadienyl}-1,2-dithiol-3-thione]
Mouse spleen cells [1]
  activity at 100 µM: 291%
[3]; 0.4 mg/kg
  Activity (relative PFC number, control = 100): 117
[3]; 2.0 mg/kg
  Activity (relative PFC number, control = 100): 186
Mouse spleen cells [2]; Experiment 1, 10^-5 M
  activity at 10 µM: 338%
Mouse spleen cells [2]; Experiment 1, 10^-6 M
  activity at 1 µM: 175%

## c1ccc([C@H]2CN3CCSC3=N2)cc1 [levamisole]
[4]; clinical use, reported
  side effects: vomiturition, eruption and hemotoxicity
[4]; disappears upon stopping the administration
  most serious side effect: granulocytopenia
